Assay results as given in publication PMC2694220 (Biochemistry, 2009).

How the values were obtained:
WbpE = WbpE (Pseudomonas aeruginosa, UniProt Q9HZ76); test: capillary electrophoresis, coupled WbpB/WbpE reaction; type: biochemical; settings: 25 mM L-glutamine in place of L-glutamate; otherwise same
WbpB = WbpB (Pseudomonas aeruginosa, UniProt G3XD23); test: capillary electrophoresis of conversion to UDP-GlcNAc; type: biochemical; settings: 10 mM α-KG, 50 mM HEPES pH 8.0, 30 °C, no WbpE
[1] = tested on: CC(=O)N[C@H]1[C@@H](OP(=O)(O)OP(=O)(O)OC[C@H]2O[C@@H](n3ccc(=O)[nH]c3=O)[C@H](O)[C@@H]2O)O[C@H](C(=O)O)[C@@H](O)[C@@H]1N; test: purified protein; settings: 1.5 mM AcCoA, 50 mM HEPES pH 7.0, 30 °C, BSA carrier

Sequence of WbpB (G3XD23 whole entry): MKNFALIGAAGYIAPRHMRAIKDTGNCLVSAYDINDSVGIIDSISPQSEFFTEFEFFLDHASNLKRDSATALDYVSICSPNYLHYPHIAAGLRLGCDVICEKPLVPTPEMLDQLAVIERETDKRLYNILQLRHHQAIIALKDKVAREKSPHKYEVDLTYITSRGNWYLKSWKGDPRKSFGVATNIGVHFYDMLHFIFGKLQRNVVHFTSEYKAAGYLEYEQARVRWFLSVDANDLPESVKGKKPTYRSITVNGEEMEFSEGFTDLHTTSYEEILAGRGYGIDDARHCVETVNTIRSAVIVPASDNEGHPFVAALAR
Sequence of WbpE (Q9HZ76 whole entry): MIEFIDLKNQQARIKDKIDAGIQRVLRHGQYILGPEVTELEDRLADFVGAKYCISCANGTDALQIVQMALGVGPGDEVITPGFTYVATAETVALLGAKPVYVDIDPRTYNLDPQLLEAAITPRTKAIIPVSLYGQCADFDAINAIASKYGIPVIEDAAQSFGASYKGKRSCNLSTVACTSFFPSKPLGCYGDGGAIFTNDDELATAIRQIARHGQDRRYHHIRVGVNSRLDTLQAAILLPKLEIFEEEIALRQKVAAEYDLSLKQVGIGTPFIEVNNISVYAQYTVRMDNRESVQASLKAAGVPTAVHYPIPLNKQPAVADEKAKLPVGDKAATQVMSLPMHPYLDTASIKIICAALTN

NC(=O)CC[C@H](N)C(=O)O [L-glutamine]
% conversion at 25 mM (WbpE): 10%

CC(=O)N[C@H]1[C@@H](OP(=O)(O)OP(=O)(O)OC[C@H]2O[C@@H](n3ccc(=O)[nH]c3=O)[C@H](O)[C@@H]2O)O[C@H](C(=O)O)[C@@H](O)[C@@H]1O [UDP-GlcNAcA]
capillary electrophoresis of conversion to UDP-GlcNAc(3keto)A (WbpB): complete conversion of the UDP-GlcNAcA starting material to the UDP-GlcNAc(3keto)A product was observed by CE

WbpD (Pseudomonas aeruginosa PAO1)
Km [1]: 107 ± 15 µM
kcat [1]: (2.9 ± 0.12) × 10^3 min^−1
